Data: US20110124888A1, “STYRYLBENZOFURAN DERIVATIVES AS INHIBITORS FOR BETA-AMYLOID FIBRIL FORMATION AND PREPARATION METHOD THEREOF” (Korea Institute of Science and Technology, priority 2008, published 2011)

Key:
[1] = test system: transgenic double tg mice (APPswe, PSEN1 dE9); assay: In vivo fear conditioning test in transgenic mice; settings: for Increase rate (fold) of freezing: 5 to 12 months of age, based on the freezing (%) of Tg vehicle group
Experimental: The tails of 3-week old mice born from Male B6C3-Tg (APPswe, PSEN1 dE9, Jackson Laboratory Co., Maine, A) and female B6C3F1 (central Lab. Animal Inc., Korea) were cut in lengths of about 0.5 cm (tail biopsy). The genomic DNAs were extracted from the tail samples and subjected to a genotype analysis to screen transgenic double tg mice.
From 5 months to 12 months after the birth, the mice were administered orally with the compound of Example 9, in an amount of 30 mg/kg or 100 mg/kg every day. As a comparative compound, tramiprosate (Aisen, P. S. et. al., Curr. Alzheimer Res. 2007, 4, 473) was used, which binds to beta-amyloid protein to inhibit the deposition and cytotoxicity to the protein. The compounds were administrated.
3) Fear Conditioning Test
At the First day of training, the mice were placed in a conditioning box and adjusted for 2 min. The fear conditioning was performed with a conditional stimulus (CS) of 75 dB for 20 sec, together with an electrical stimulus (unconditional stimulus (US)) of 0.5 mA for final 2 sec in the conditional stimulus period. After 1 min, the animals were transferred to a cage. After 24 hrs, the retention test was performed. The animals were placed in the same conditioning box as used above and observed for 5 min. The freezing response was measured without CS and US. The freezing response is defined in the state of the animals keeping still except for breathing.

[2] = target: beta-amyloid 42 (Homo sapiens, UniProt P05067); assay: Biochemical test: content of beta-amyloid 42 in hippocampus tissue of transgenic mice; assay type: in vivo; settings: for Reduction rate (%) of beta amyloid 42 content: hippocampus tissue, based on the content of beta amyloid 42 in the Tg group
[3] = test system: congo red-positive beta-amyloid plagues; assay: Immunohistochemistry: congo red-positive beta-amyloid plaque count in hippocampus and cortex of transgenic mice; assay type: in vivo; settings: for Reduction rate (%) of beta-amyloid plaques, cortex / Reduction rate (%) of beta-amyloid plaques, hippocampus / Total reduction rate (%) of beta-amyloid plaques: vs Tg group
Experimental: The transgenic mice were screened and drug was administered thereto as described in 1) and 2) of Experimental Example 4. The brain was separated from the transgenic mouse and fixed in 10% neutral formalin solution. A region of the brain including the hippocampus and the cortex were subjected to removal, washing, dehydration and paraffin infiltration to obtain paraffin block including the brain tissue. The paraffin block was subjected to thin section in thickness of 8 μm to obtain the sections of all regions of hippocampus. Among them, 10 sections were elected at regular intervals. They were deparaffinized, hydrated, immersed in Mayer's hematoxylin for 1 min and rinsed with tap water. The rinsed tissue was reacted in an alkaline sodium chloride solution for 20 min, after then was reacted in an alkaline congo red solution for 20 min. The resulting tissue was washed with 100% ethyl alcohol, cleared with xylene and mounted using a synthetic mounting medium. In the hippocampus and cortex regions of the tissue preparations strained with congo red, congo red-positive beta-amyloid plagues were counted.

Chain of beta-amyloid 42 (P05067 672-713 limits assumed): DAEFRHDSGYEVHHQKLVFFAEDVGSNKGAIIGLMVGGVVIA

CNc1ccc(C=Cc2cc3cc(OC)ccc3o2)cc1 [Compound 17, 5-methoxy-2-(4-methylaminostyryl)benzofuran]
melting point: 174 to 175 °C

COc1ccc2cc(C=Cc3ccc(N(C)C)cc3)oc2c1 [Compound 9, 6-methoxy-2-(4-dimethylaminostyryl)benzofuran]
Increase rate (fold) of freezing ([1]; 30 mg/kg orally every day): 3.2 fold | Increase rate (fold) of freezing ([1]; 100 mg/kg orally every day): 3.8 fold | degree of memory compared with tramiprosate (in words) ([1]; 30 and 100 mg/kg): much higher degree of memory in a dose-dependent manner | Reduction rate (%) of beta amyloid 42 content ([2]; 30 mg/kg): 41% | Reduction rate (%) of beta amyloid 42 content ([2]; 100 mg/kg): 48% | reduction rate of beta-amyloid plague compared with tramiprosate (in words) ([2]; Table 13, 30 and 100 mg/kg): remarkable reduction rate of beta-amyloid plague in a dose-dependent manner | Reduction rate (%) of beta-amyloid plaques, cortex ([3]; 30 mg/kg): 43% | Reduction rate (%) of beta-amyloid plaques, hippocampus ([3]; 30 mg/kg): 29% | Total reduction rate (%) of beta-amyloid plaques ([3]; 30 mg/kg): 41% | Reduction rate (%) of beta-amyloid plaques, cortex ([3]; 100 mg/kg): 61% | Reduction rate (%) of beta-amyloid plaques, hippocampus ([3]; 100 mg/kg): 64% | Total reduction rate (%) of beta-amyloid plaques ([3]; 100 mg/kg): 61% | beta-amyloid deposition in stained hippocampus and cortex tissues compared with tramiprosate (in words) ([3]; FIGS. 1 and 2): remarkably reduced beta-amyloid deposition | reduction rate of beta-amyloid deposition compared with tramiprosate (in words) ([3]; Table 12, 30 and 100 mg/kg): remarkable reduction rate of beta-amyloid deposition in a dose-dependent manner
